# Measurements published in publication PMC7614683, “A small molecule PI3Kα activator for cardioprotection and neuroregeneration” (Nature, 2023).
# Target: T1, human p110β/p85α (PI3Kβ) (Homo sapiens, UniProt P42338)
# T1 construct: Full-length human p110β/p85α and p110δ/p85α were cloned and expressed in a similar manner; Strep-tag followed by TEV protease site (N, cleaved yes); host or cells: Spodoptera frugiperda Sf9, baculovirus
# Experiment: ADP-Glo in vitro lipid kinase assay, PI3Kβ
# Format: biochemical
# Protocol: Full-length human p110β/p85α and p110δ/p85α were cloned and expressed in a similar manner. Briefly, 5 litres of Spodoptera frugiperda (Sf9) cell culture at a density of 1.0 x 10^6 cells/ml were co-infected with both a p85α-encoding virus and a virus encoding p110β/δ with an N-terminal Strep-tag followed by a tobacco etch virus (TEV) protease site (plasmid OP832 for p110β, plasmid OP833 for p110δ and plasmid of OP809 for p85α). After a 48 h infection at 27°C, cells were harvested and washed with PBS. Cell pellets were then resuspended in Lysis Buffer (20 mM Tris pH 8.0, 150 mM NaCl, 5% glycerol, 2 mM β-mercaptoethanol, 1 EDTA-free protease inhibitor tablet (Roche) per 50 ml of buffer) and sonicated ar 4°C for 7 min in 15 sec intervals followed by a 15 sec wait. […]
# For re-screening of HTS hits and routine compound profiling, the reaction mixture contained 2 μl PI3K enzyme, 2 μl compound and/or pY and 2 μl of liposome substrate mixed with ATP. […] Luminescence was read using a Sense (Hidex) plate reader. […]
# For characterisation of the effects of 1938 on in vitro PI3K enzymology, all reactions were performed at room temperature with 384 white-polystyrene plates (Corning #3574). […] Data was expressed as velocity (nmol of ADP generated/nmol of enzyme/sec). […] Luminescence was read using a PHERAstar® plate reader with software version 5.41, and analyses were performed using GraphPad Prism 8/9.
# T1 sequence (P42338 whole entry): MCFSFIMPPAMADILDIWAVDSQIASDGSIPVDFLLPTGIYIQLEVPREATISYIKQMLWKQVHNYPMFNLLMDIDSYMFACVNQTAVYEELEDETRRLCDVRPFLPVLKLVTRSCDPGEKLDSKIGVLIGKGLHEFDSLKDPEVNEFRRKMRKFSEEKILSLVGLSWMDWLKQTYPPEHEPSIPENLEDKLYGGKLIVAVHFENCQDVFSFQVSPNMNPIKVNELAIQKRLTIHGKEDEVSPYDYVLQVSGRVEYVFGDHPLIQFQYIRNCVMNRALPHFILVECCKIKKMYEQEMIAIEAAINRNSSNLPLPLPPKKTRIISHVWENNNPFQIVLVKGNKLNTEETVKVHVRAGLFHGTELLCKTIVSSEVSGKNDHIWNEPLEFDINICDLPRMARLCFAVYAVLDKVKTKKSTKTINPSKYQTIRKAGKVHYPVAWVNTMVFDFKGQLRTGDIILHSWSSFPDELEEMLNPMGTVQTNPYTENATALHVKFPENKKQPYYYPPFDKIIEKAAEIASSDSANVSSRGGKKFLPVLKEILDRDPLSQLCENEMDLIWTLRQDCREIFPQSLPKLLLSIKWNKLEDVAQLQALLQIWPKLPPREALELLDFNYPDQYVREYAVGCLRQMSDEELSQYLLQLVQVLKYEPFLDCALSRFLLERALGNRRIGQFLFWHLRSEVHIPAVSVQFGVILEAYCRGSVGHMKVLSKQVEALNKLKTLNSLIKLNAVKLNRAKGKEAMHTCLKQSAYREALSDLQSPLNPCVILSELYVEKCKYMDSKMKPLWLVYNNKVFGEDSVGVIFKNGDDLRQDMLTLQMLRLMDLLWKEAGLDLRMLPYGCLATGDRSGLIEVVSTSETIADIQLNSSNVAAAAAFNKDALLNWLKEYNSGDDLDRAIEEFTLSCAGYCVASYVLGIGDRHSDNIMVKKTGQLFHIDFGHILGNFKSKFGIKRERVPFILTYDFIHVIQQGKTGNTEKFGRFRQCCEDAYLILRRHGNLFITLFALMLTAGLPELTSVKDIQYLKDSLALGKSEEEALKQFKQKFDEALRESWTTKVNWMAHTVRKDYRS
# T1 sequence (P27986 whole entry partner): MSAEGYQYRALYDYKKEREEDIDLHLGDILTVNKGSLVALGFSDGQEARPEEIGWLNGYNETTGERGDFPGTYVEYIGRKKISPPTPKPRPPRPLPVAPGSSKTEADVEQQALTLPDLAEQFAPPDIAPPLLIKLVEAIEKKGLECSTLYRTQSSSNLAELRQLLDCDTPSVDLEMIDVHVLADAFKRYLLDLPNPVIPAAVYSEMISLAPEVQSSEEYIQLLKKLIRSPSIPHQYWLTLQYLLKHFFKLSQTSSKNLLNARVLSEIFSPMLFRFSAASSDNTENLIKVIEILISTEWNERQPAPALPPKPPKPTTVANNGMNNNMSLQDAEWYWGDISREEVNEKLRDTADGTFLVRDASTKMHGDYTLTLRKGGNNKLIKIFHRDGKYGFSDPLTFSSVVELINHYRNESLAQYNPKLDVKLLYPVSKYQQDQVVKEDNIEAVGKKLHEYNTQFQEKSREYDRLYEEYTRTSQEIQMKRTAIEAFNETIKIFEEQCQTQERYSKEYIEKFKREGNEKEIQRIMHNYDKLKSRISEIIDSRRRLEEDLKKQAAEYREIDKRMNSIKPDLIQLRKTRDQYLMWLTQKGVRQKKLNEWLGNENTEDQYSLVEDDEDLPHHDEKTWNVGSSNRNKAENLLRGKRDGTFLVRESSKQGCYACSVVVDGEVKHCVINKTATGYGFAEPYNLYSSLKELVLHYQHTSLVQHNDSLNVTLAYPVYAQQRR
smiles,measurement,value
CCN1CCN(c2ccc(Nc3cc(Nc4cccc5c4N(C(C)=O)CC5)ccn3)cc2)CC1 [Compound 1938],activation of PI3Kβ,but not PI3Kβ or PI3Kδ
